According to patent publication US11696913B2, “Prolonged ectoparasite-controlling agent for animal” (MITSUI CHEMICALS AGRO, INC., priority 2017, dated 2023):

Columns and labels:
Laodelphax striatellus = assay: Insecticidal testing against small brown planthopper; type: in vivo; settings: 144 h, concentration 100 ppm, sprayed rice seedlings, after 6 days, read-out: pesticidal rate
How it was run: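 Acetone solution of compound at a set concentration sprayed onto rice seedlings, air-dried, then exposed to 10 planthoppers (one group). Held at 25° C; survival rate recorded after 6 days.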

Dermacentor variabilis = assay: In vitro contact test with adult hard ticks (Dermacentor variabilis); settings: read-out: acaricidal activity; for pest or weed control at 0.04 µg/cm2, 0.04 µg/cm2: dose 0.04 μg/cm^2, 48 h; for pest or weed control at 0.2 µg/cm2, 0.2 µg/cm2: dose 0.2 μg/cm^2, 48 h; for pest or weed control at 1 µg/cm2, 1 µg/cm2: dose 1 μg/cm^2, 48 h
How it was run: (§1)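 Acaricidal activity = % ticks dead or moribund after 48 h contact with acetone-deposited compound on vial walls (e.g., 900 ppm solution → 5 μg/cm^2). Ambient conditions for R. sanguineus, 21° C./85% rel. hum. for other species; heat challenge at 45-50° C. separated climbers from moribund ticks.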

Ixodes ricinus = assay: In vitro contact test with adult hard ticks (Ixodes ricinus); settings: read-out: acaricidal activity; for pest or weed control at 0.2 µg/cm2, 0.2 µg/cm2: dose 0.2 μg/cm^2, 48 h; for pest or weed control at 1 µg/cm2, 1 µg/cm2: dose 1 μg/cm^2, 48 h; for pest or weed control at 5 µg/cm2, 5 µg/cm2: dose 5 μg/cm^2, 48 h
How it was run: as §1

Ctenocephalides felis [1] = assay: In vitro contact test with fleas; settings: read-out: insecticidal activity; for pest or weed control at 0.2 µg/cm2, 0.2 µg/cm2: dose 0.2 μg/cm^2, dead or moribund fleas after 48 h; for pest or weed control at 1 µg/cm2, 1 µg/cm2: dose 1 μg/cm^2, dead or moribund fleas after 48 h; for pest or weed control at 0.04 µg/cm2, 0.04 µg/cm2: dose 0.04 μg/cm^2, dead or moribund fleas after 48 h
How it was run: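 Activity is the percentage of fleas dead or moribund at 48 h, judged by immobility or uncoordinated movement after tapping. Tubes were coated by evaporating acetone solutions (900 ppm gives 5 μg/cm^2), then held 5-10 adult fleas of both sexes at room temperature and ambient humidity.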

Rhipicephalus sanguineus = assay: In vitro contact test with adult hard ticks (Rhipicephalus sanguineus); settings: read-out: acaricidal activity; for pest or weed control at 0.2 µg/cm2, 0.2 µg/cm2: dose 0.2 μg/cm^2, 48 h; for pest or weed control at 1 µg/cm2, 1 µg/cm2: dose 1 μg/cm^2, 48 h; for pest or weed control at 0.04 µg/cm2, 0.04 µg/cm2: dose 0.04 μg/cm^2, 48 h
How it was run: as §1

Amblyomma americanum = assay: In vitro contact test with hard ticks (Amblyomma americanum nymphs); settings: read-out: acaricidal activity; for pest or weed control at 0.2 µg/cm2, 0.2 µg/cm2: dose 0.2 μg/cm^2, 48 h; for pest or weed control at 1 µg/cm2, 1 µg/cm2: dose 1 μg/cm^2, 48 h; for pest or weed control at 0.04 µg/cm2, 0.04 µg/cm2: dose 0.04 μg/cm^2, 48 h
How it was run: as §1

Ctenocephalides felis [2] = assay: Ctenocephalides felis in-vitro feeding test with fleas (CTECFE oral); settings: 48 hours, read-out: insecticidal feeding activity; for pest or weed control at 0.16 ppm: dose 0.16 ppm in citrated cattle blood; for pest or weed control at 0.8 ppm: dose 0.8 ppm in citrated cattle blood; for pest or weed control at 4 ppm: dose 4 ppm in citrated cattle blood; for pest or weed control at 0.032 ppm: dose 0.032 ppm in citrated cattle blood
How it was run: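 Scored as percent fleas killed (0–100%) 48 hours after feeding began. Compound, dissolved in DMSO and diluted into citrated cattle blood, was offered via a parafilm membrane to roughly 20 adult male and female C. felis at about 37° C.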

[3] = system: Rhipicephalus (Boophilus) microplus; assay: In vitro injection test with Rhipicephalus (Boophilus) microplus (BOOPMI Inj); settings: 168 h, laid fertile eggs after 7 days, read-out: acaricidal activity; for pest or weed control at 32 ng: dose 0.032 μg/animal injected; for pest or weed control at 0.00016 mg: dose 0.16 μg/animal injected; for pest or weed control at 0.0008 mg: dose 0.8 μg/animal injected; for pest or weed control at 6.4 ng: dose 0.0064 μg/animal injected
How it was run: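 Five engorged adult females each get a 1 μl abdominal injection of compound dissolved and diluted in DMSO. Kept 7 days at 28° C./85% rel. hum.; percent activity rates egg laying and egg fertility (0% all fertile, 100% none laid or infertile).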

Plutella xylostella = assay: Insecticidal testing against diamondback moth; type: in vivo; settings: foliar, 144 h, concentration 100 ppm, cabbage leaf dip, third-stage larvae, after 6 days, read-out: pesticidal rate
Description: Insecticidal Testing Against Diamondback Moth (Plutella xylostella)

Spodoptera litura = assay: Insecticidal testing against common cutworm; type: in vivo; settings: foliar, 144 h, concentration 100 ppm, cabbage leaf dip, second-stage larvae, after 6 days, read-out: pesticidal rate
Description: Insecticidal Testing Against Common Cutworm (Spodoptera litura)

Compound	pest or weed control at 100 ppm (Laodelphax striatellus) [%]	pest or weed control at 0.04 µg/cm2, 0.04 µg/cm2 (Dermacentor variabilis) [%]	pest or weed control at 0.2 µg/cm2, 0.2 µg/cm2 (Dermacentor variabilis) [%]	pest or weed control at 1 µg/cm2, 1 µg/cm2 (Dermacentor variabilis) [%]	pest or weed control at 1 µg/cm2, 1 µg/cm2 (Ixodes ricinus) [%]	pest or weed control at 5 µg/cm2, 5 µg/cm2 (Ixodes ricinus) [%]	pest or weed control at 0.2 µg/cm2, 0.2 µg/cm2 (Ctenocephalides felis [1]) [%]	pest or weed control at 1 µg/cm2, 1 µg/cm2 (Ctenocephalides felis [1]) [%]	pest or weed control at 0.2 µg/cm2, 0.2 µg/cm2 (Rhipicephalus sanguineus) [%]	pest or weed control at 1 µg/cm2, 1 µg/cm2 (Rhipicephalus sanguineus) [%]	pest or weed control at 0.2 µg/cm2, 0.2 µg/cm2 (Amblyomma americanum) [%]	pest or weed control at 1 µg/cm2, 1 µg/cm2 (Amblyomma americanum) [%]	pest or weed control at 0.16 ppm (Ctenocephalides felis [2]) [%]	pest or weed control at 0.8 ppm (Ctenocephalides felis [2]) [%]	pest or weed control at 4 ppm (Ctenocephalides felis [2]) [%]	pest or weed control at 32 ng [3] [%]	pest or weed control at 0.00016 mg [3] [%]	pest or weed control at 0.0008 mg [3] [%]	pest or weed control at 100 ppm (Plutella xylostella) [%]	pest or weed control at 100 ppm (Spodoptera litura) [%]	other results
O=C(Nc1cccc(C(=O)Nc2c(I)cc(C(F)(C(F)(F)F)C(F)(F)C(F)(F)F)cc2C(F)(F)F)c1F)c1ccc(F)c(F)c1 (stereo not shown) [Compound 78]	≥ 70	90	90	90	90	90	95	95	90	90	90	90	95	95	95	100	100	100	≥ 70	≥ 70	pest or weed control at 0.2 µg/cm2, 0.2 µg/cm2 (Ixodes ricinus): 90%
O=C(Nc1cccc(C(=O)Nc2c(I)cc(C(F)(C(F)(F)F)C(F)(F)F)cc2S(=O)(=O)C(F)(F)F)c1F)c1ccc(F)cc1 [Compound 64]	≥ 70	–	90	90	90	90	95	95	90	90	90	90	95	95	95	100	100	100	≥ 70	≥ 70	–
O=C(Nc1cccc(C(=O)Nc2c(I)cc(C(F)(C(F)(F)F)C(F)(F)F)cc2C(F)(F)F)c1F)c1ccc(F)c(F)c1 [Compound 86]	≥ 70	90	90	90	90	90	95	95	90	90	90	90	95	95	95	100	100	100	≥ 70	≥ 70	pest or weed control at 0.2 µg/cm2, 0.2 µg/cm2 (Ixodes ricinus): 90%; pest or weed control at 0.04 µg/cm2, 0.04 µg/cm2 (Ctenocephalides felis [1]): 95%; pest or weed control at 0.04 µg/cm2, 0.04 µg/cm2 (Rhipicephalus sanguineus): 90%; pest or weed control at 0.04 µg/cm2, 0.04 µg/cm2 (Amblyomma americanum): 90%; pest or weed control at 0.032 ppm (Ctenocephalides felis [2]): 95%
O=C(Nc1cccc(C(=O)Nc2c(I)cc(C(F)(C(F)(F)F)C(F)(F)F)cc2OC(F)F)c1F)c1ccc(F)cc1 [Compound 92]	≥ 70	90	90	–	90	90	95	95	90	90	90	90	95	95	95	100	100	100	≥ 70	≥ 70	pest or weed control at 0.2 µg/cm2, 0.2 µg/cm2 (Ixodes ricinus): 90%; pest or weed control at 0.04 µg/cm2, 0.04 µg/cm2 (Ctenocephalides felis [1]): 95%; pest or weed control at 0.04 µg/cm2, 0.04 µg/cm2 (Rhipicephalus sanguineus): 90%; pest or weed control at 0.032 ppm (Ctenocephalides felis [2]): 95%; pest or weed control at 6.4 ng [3]: 100%
O=C(Nc1cccc(C(=O)Nc2c(I)cc(C(F)(C(F)(F)F)C(F)(F)F)cc2OC(F)(F)F)c1F)c1ccc(F)cc1 [Compound 73]	≥ 70	90	90	90	90	90	95	95	90	90	90	90	95	95	95	100	100	100	≥ 70	≥ 70	pest or weed control at 0.2 µg/cm2, 0.2 µg/cm2 (Ixodes ricinus): 90%; pest or weed control at 0.04 µg/cm2, 0.04 µg/cm2 (Ctenocephalides felis [1]): 95%; pest or weed control at 0.04 µg/cm2, 0.04 µg/cm2 (Rhipicephalus sanguineus): 90%
O=C(Nc1cccc(C(=O)Nc2c(Br)cc(C(F)(C(F)(F)F)C(F)(F)C(F)(F)F)cc2OC(F)F)c1F)c1ccc(F)cc1 (stereo not shown) [Compound 106]	≥ 70	90	90	90	90	90	95	95	90	90	90	90	95	95	95	100	100	100	≥ 70	≥ 70	pest or weed control at 0.2 µg/cm2, 0.2 µg/cm2 (Ixodes ricinus): 90%; pest or weed control at 0.04 µg/cm2, 0.04 µg/cm2 (Ctenocephalides felis [1]): 95%; pest or weed control at 0.04 µg/cm2, 0.04 µg/cm2 (Rhipicephalus sanguineus): 90%; pest or weed control at 0.04 µg/cm2, 0.04 µg/cm2 (Amblyomma americanum): 90%; pest or weed control at 0.0064 ppm (Ctenocephalides felis [2]; dose 0.0064 ppm in citrated cattle blood): 95%; pest or weed control at 0.032 ppm (Ctenocephalides felis [2]): 95%; pest or weed control at 6.4 ng [3]: 100%
N#Cc1ccc(C(=O)Nc2cccc(C(=O)Nc3c(I)cc(C(F)(C(F)(F)F)C(F)(F)F)cc3C(F)(F)F)c2F)cn1 [Compound 79]	≥ 70	–	–	90	90	90	95	95	90	90	90	90	95	95	95	100	100	100	≥ 70	≥ 70	–
